Patent US7662748B2, “Formulations comprising triazoles and alkoxylated amines” (Janssen Pharmaceutica, N.V., priority 2002, dated 2010)

What was measured:
Erisiphe graminis [1] = experiment: Fungicidal activity versus powdery mildew on wheat plants; format: in vivo, Erisiphe graminis on winter wheat plants, variety Corvus; details: day 17, mean of 4 replicates
Description: • Test model: Winter wheat plants, variety Corvus, were sprayed with the test solutions till run off. Treated plants were incubated in the glasshouse and dusted with Erisiphe graminis conidia after drying. • Test solutions: • 1) aqueous solutions were prepared by diluting a commercial propiconazole formulation “Tilt® 250 EC” until spray solutions were obtained comprising 8, 16, 20, and 24 ppm of propiconazole. • 2) aqueous solutions were prepared comprising of 40, 80, 160, 320, 640, 1280, and 2560 ppm of N,N′,N′-tris(2-hydroxyethyl)-N-cocoalkyl-1,3-diamino-propane (i.e. ethoduomeen C/13). • 3) to aqueous solutions comprising 8 and 16 ppm of propiconazole an amount of “ethoduomeen C/13” was added yielding test solutions wherein the ratio of propiconazole over “ethoduomeen C/13” is 1/160, 1/80, 1/40, 1/20, 1/10 and 1/5.
The commercial “Tilt® 250 EC” formulation comprises 25% (w/v) of propiconazole dissolved in an aromatic petroleum hydrocarbon liquid mixture.
On day 17 after dusting the wheat plants with Erisiphe graminis the % inhibition of fungal growth was evaluated.

Erisiphe graminis [2] = experiment: as above; format: in vivo, Erisiphe graminis on winter wheat plants, variety Corvus; details: propiconazole 0, ethoduomeen C/13 16 ppm a.i.; day 17; mean of 4 replicates

Compound	% Fungicidal activity versus E. graminis (Erisiphe graminis [1]; propiconazole 8 ppm a.i., ethoduomeen C/13 0)	% Fungicidal activity versus E. graminis (Erisiphe graminis [1]; propiconazole 16 ppm a.i., ethoduomeen C/13 0)	% Fungicidal activity versus E. graminis (Erisiphe graminis [1]; propiconazole 20 ppm a.i., ethoduomeen C/13 0)	% Fungicidal activity versus E. graminis (Erisiphe graminis [1]; propiconazole 24 ppm a.i., ethoduomeen C/13 0)	% Fungicidal activity versus E. graminis (Erisiphe graminis [1]; propiconazole 0, ethoduomeen C/13 40 ppm a.i.)	% Fungicidal activity versus E. graminis (Erisiphe graminis [1]; propiconazole 0, ethoduomeen C/13 80 ppm a.i.)	% Fungicidal activity versus E. graminis (Erisiphe graminis [1]; propiconazole 0, ethoduomeen C/13 320 ppm a.i.)	% Fungicidal activity versus E. graminis (Erisiphe graminis [1]; propiconazole 0, ethoduomeen C/13 640 ppm a.i.)	% Fungicidal activity versus E. graminis (Erisiphe graminis [1]; propiconazole 0, ethoduomeen C/13 1280 ppm a.i.)	% Fungicidal activity versus E. graminis (Erisiphe graminis [1]; propiconazole 0, ethoduomeen C/13 2560 ppm a.i.)	% Fungicidal activity versus E. graminis (Erisiphe graminis [2])
CCCC1COC(Cn2cncn2)(c2ccc(Cl)cc2Cl)O1 (centres unmarked) [propiconazole, 1-[[2-(2,4-dichlorophenyl)-4-propyl-1,3-dioxolan-2-yl]methyl]-1H -1,2,4-triazole]	25%	50%	50%	80%							
N,N′,N′-tris(2-hydroxyethyl)-N-cocoalkyl-1,3-diamino-propane [ethoduomeen C/13]					0%	0%	0%	0%	0%	0%	0%
